# Reference: PMC8904451, “Novel chalcone-derived pyrazoles as potential therapeutic agents for the treatment of non-small cell lung cancer” (Scientific Reports, 2022)
# What was measured:
# [1] = test system: caspase-3/7 in A-549 cells; assay: Caspase-3/7 activation by flow cytometry, A-549; assay type: cell-based, human; details: IC90
# Protocol: (§1) To explain the type of cell death that cancer cells undergo after treatment with PCH-1, the ability of the compound to activate caspases 3–7 was determined by flow cytometry. […] The most pronounced activation of caspase 3 occurred equally in A-549 and H226 cell lines after 48 h of treatment and was sevenfold greater than that in the vehicle.
# (§2) Cells were seeded onto tissue culture plates and allowed to attach for 24 h. Next, the cells were treated with PCH-1 or Etoposide at IC90 concentration for 6, 24, and 48 h. After incubation, the cells were harvested by trypsinization, rinsed twice with PBS, and stained with Annexin V Alexa Fluor™ 488 conjugate (Thermo Fisher, #A13201) for apoptosis assay and with CellEvent™ Caspase-3/7 Green Flow Cytometry Assay Kit (Thermo Fisher, #C10427) for caspase-3/7 activation according to the manufacturer’s protocols. The analysis was performed with Guava EasyCyte 8 cell sorter (Merck Millipore) and FlowJo software v10. Each experiment was repeated independently three times.
# A-549 cells = assay: Wound healing migration assay; assay type: cell-based, human
# Protocol: To further confirm the antimigratory potential of PCH-1, the wound healing assay was performed on A-549 cells. […] This effect was retained during the entire exposure time, with the highest difference during 18–24 h compared to that in the control group. Finally, the anti-migratory properties of PCH-1 were studied by co-treatment A-549 cells with TGF-β1.
# To analyze cell motility, A-549 cells were seeded onto the Ibidi-silicone insert on a cover glass-bottom 24-well plate for live cell imaging and incubated for 24 h. Subsequently, the inserts were dislodged, the cellular debris was removed by washing with RPMI, and the cells were incubated with different concentrations of PCH-1, and/or 2.5 ng/ml TGF-β1 (Sigma-Aldrich) in an imaging chamber (cellVivo incubation system, Olympus) at 37 °C with 5% CO2. Images were captured every 10 min for 20 or 42 h under × 10 magnification using a fluorescence microscope (IX83 Inverted Microscope, Olympus) connected to an XC50 digital color camera (Olympus). The percentage of wound closure was quantified with ImageJ software.
# tubulin = assay: HTS-tubulin polymerization assay; assay type: biochemical; details: 120-min kinetic reaction, absorbance 340 nm, vs vehicle
# Protocol: To further evaluate whether the tubulin–microtubule system was the target site of PCH-1, in vitro microtubule polymerization assays were performed using the microtubule protein with Paclitaxel and Vincristine as a reference. Paclitaxel and Vincristine are antimitotic drugs that have been commonly used in conventional chemotherapy for decades. In 1979, it was shown that Paclitaxel accelerates the initiation of tubulin fiber polymerization and stabilizes the formed tubulin fibers in vitro, even in the absence of GTP or MAP in the solution[30]. Vincristine, on the other hand, binds to tubulin and inhibits its polymerization.
# The assay was performed according to the manufacturer’s instructions. Briefly, compounds were diluted in DMSO to a concentration of 2 mM and then in GTB buffer to a concentration of 50 µM. In the wells of a 96-well plate (UV transparent, half surface wells) previously heated to 37 °C, 10 µl of dilutions of the test compounds were placed in duplicate. The plate was incubated for 2 min at 37 °C, and 100 µl of freshly prepared tubulin solution (4 mg/ml) in GTB-GTP buffer was then added. The plate was immediately placed in a Tecan SPARK 10 M plate reader, and the reaction kinetics were measured with the following settings: absorbance reading: 340 nm, 37 °C, interval: 45 s, number of cycles: 160.
# HEK293 cells = assay: MTT cell viability assay, HEK293; assay type: cell-based, human; details: Homo sapiens, HEK293, 72 h, nonmalignant cells, read-out: IC50 ± SD, growth inhibition, HEK293
# Protocol: (§3) All the synthesized chalcone-derived pyrazoles were evaluated for their antiproliferative activity against three human non-small cell lung cancer cell lines: A-549, H226, and H460, and a nonmalignant human embryonic kidney cell line HEK293. Cisplatin and 5-fluorouracil (5-FU) were used as a reference. Cells were exposed to a range of PCH concentrations (0.5–100 µM) for 72 h and analyzed by 3-(4,5-dimethylthiazol-2-yl)-2,5-diphenyl-2H-tetrazolium bromide (MTT) assay. The results of the studies are expressed as the IC50 concentration that inhibits 50% growth of cells. […] Following treatment with PCH-1, the viability of all the tested cancer cell lines decreased in a concentration-dependent manner.
# (§4) The cell viability assay was performed for A-549, H226, H460, and HEK293 cells after treatment with the test compounds by using the 3-(4,5-dimethylthiazol-2-yl)-2,5-diphenyltetrazolium bromide (MTT, Sigma-Aldrich) assay. Briefly, cells were seeded onto 96-well culture plates for attachment. After 24 h, triplicate wells were treated with DMSO (1%) and the agents. After 72 h of incubation at 37 °C in 5% CO2, the MTT solution (0.4 mg/ml) was added to each well. After 2–4 h of incubation, the medium was removed, and the formazan crystals were dissolved in 100 μl of DMSO. The absorption was measured at 450 nm with an ASYS UVM340 microplate reader (Biochrom Ltd.). The 50% inhibitory concentration (IC50) was defined as the concentration that reduced the absorbance of the DMSO-treated wells by 50% of the vehicle. The IC50 values were generated from GraphPad Prism 9 software by plotting the survival curve as a function of dose from 3 independent experiments.
# [2] = test system: caspase-3/7 in H460 cells; assay: Caspase-3/7 activation by flow cytometry, H460; assay type: cell-based, human; details: IC90
# Protocol: as §1, §2
# H226 cells = assay: MTT cell viability assay, H226; assay type: cell-based, human
# Protocol: as §3, §4
smiles,measurement,setting,value
"COc1ccc(C2CC(c3cc4c(cc3OC)OCO4)=NN2C(C)=O)cc1 (centres unmarked) [PCH-1, 1-[3-(6-methoxy-2H-1,3-benzodioxol-5-yl)-5-(4-methoxyphenyl)-4,5-dihydro-1H-pyrazol-1-yl]ethan-1-one]","caspase-3/7 activation, increase compared to control, A-549",[1]; 6 h,2.6 fold
same,"activation of caspase 3 vs vehicle, A-549",[1]; 48 h,sevenfold
same,"cells with activated caspase 3/7 vs control, A-549",[1]; later exposure,greater than 5.8 times
same,TGF-β1-induced cell motility (wound closure),"A-549 cells; A-549 + 2.5 ng/ml TGF-β1, 5 µM and 10 µM, 20 h",the wound remained opened
same,cell migration (wound closure),"A-549 cells; A-549, 10 and 15 µM",significantly reduced the migration of the cells
same,effect on tubulin polymerization kinetics,tubulin,remarkably reduced the total mass of tubulin polymer
same,IC50,HEK293 cells,20.9 ± 2.34 µM
same,"caspase-3/7 activation, increase compared to control, H460",[2]; 6 h,3.15 fold
same,"cells with activated caspase 3/7 vs control, H460",[2]; later exposure,remaining approximately constant
same,"superior activity to the reference compound Cisplatin, H226",H226 cells; 72 h IC50 ratio,~3.7 fold
same,IC50,"H226 cells; Homo sapiens, NCI-H226, 72 h, MTT, read-out: IC50 ± SD, growth inhibition, H226",4.69 ± 0.43 µM
